Molecular target: NANOLUC® luciferase (Oplophorus gracilirostris, UniProt Q9GV45, A31E/A60N/A81I/F95D/I117V/K70R/L54V/L99Q/M102K/N193R/P142E/Q151K/Q38R/Q45L/V71I/Y165I)
Assay: Michaelis-Menten analysis of relative luminescence produced by NANOLUC luciferase at various concentrations of coelenterazine analogues
Format: biochemical
Conditions: 0.01 nM NANOLUC luciferase

NANOLUC® luciferase, sequence (Q9GV45 other isoform, or with tags, fused parts or gaps with the stated changes): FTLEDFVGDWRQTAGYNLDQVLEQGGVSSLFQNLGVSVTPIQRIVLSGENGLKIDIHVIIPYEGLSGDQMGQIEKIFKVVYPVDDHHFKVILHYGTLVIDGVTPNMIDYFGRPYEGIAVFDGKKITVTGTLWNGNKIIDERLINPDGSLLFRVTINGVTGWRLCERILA

Structure (SMILES) | Km (Table 1) [µM] | Km (Table 2) [µM]
O=c1c(Cc2ccco2)nc2c(-c3cnnc(Cl)c3)[nH]c(-c3cccc(F)c3)cn1-2 [Compound 10299] | 0.15 | 
O=c1c(Cc2ccco2)nc2c(-c3cnnc(Cl)c3)[nH]c(-c3cccc(F)c3F)cn1-2 [Compound 10427, 8-(6-chloropyridazin-4-yl)-6-(2,3-difluorophenyl)-2-(furan-2-ylmethyl)imidazo[1,2-a]pyrazin-3(7H)-one] |  | 0.16
COc1cccc(-c2cn3c(=O)c(Cc4ccco4)nc-3c(-c3cnnc(Cl)c3)[nH]2)c1 [Compound 10300] | 0.27 | 

From patent US20250206747A1, “COELENTERAZINE ANALOGUES” (priority 2023, published 2025)
